Like-named read-outs stand apart in the source and are kept apart here.
Key:
Assay type in all cases: in vivo, mouse
[1] = test system: leukemia cell line T739; details: T739 mice
Experimental: (§1) The biological composition comprising 10^8 cells per ml of activated and conditioned yeast cells of the strain Saccharomyces cerevisiae Hansen strain AS2.11 was prepared by the methods described in Section 5.1 and subsections therein.
(§2) The mice injected with tumor cells were immediately divided into 4 experimental groups of ten mice per group and one control group. The four experimental groups were triplicated (i.e., using a total of 120 mice in the experimental groups).
(§3) The mice in group CK2 also started receiving saline on the same day as the other four groups. […] The number of tumor cells in the mice were determined by standard techniques.

[2] = test system: leukemia cell line L6565; details: SWI mice
Experimental: as §1, §2, §3

[3] = test system: leukemia cell line T739; details: T739 mice; for Number of live animals remaining in the group: 30 mice per group
Experimental: The survival time of the […] after tumor injection and treatment was studied.
as §1
The animals were prepared in a similar manner as described in Section 8.1.
The mice injected with tumor cells were immediately divided into 4 experimental groups of ten mice per group and one control group. The four experimental groups were triplicated (i.e., using a total of 120 mice in the experimental groups). In group 2AY, the mice received 0.3 ml of the biological composition once per day. In group 2NY, the mice received 0.3 ml of the untreated yeast cells once per day. […] In group 2CK1, the mice received 0.3 ml of physiological saline once per day.
(§4) The mice in group CK2 also started receiving saline on the same day as the other four groups. […] The mice were observed over 6 months from the day of tumor inoculation and survival was recorded. The number of tumor cells in the mice were determined by standard techniques.

[4] = test system: leukemia cell line L6565; details: SWI mice; for Number of live animals remaining in the group: 30 mice per group
Experimental: The survival time of mice after tumor injection and treatment was studied.
as §1
The animals were prepared in a similar manner as described in Section 6.1.
The mice injected with tumor cells were kept for 5 days and then were divided into 4 experimental groups of ten mice per group and one control group. The four experimental groups were triplicated (i.e., using a total of 120 mice in the experimental groups). In group 2AY, the mice received 0.3 ml of the biological composition once per day. In group 2NY, the mice received 0.3 ml of the untreated yeast cells once per day. […] In group 2CK1, the mice received 0.3 ml of physiological saline once per day.
as §4

[5] = 1 month after cessation of treatment
[6] = 2 months after cessation of treatment
[7] = 3 months after cessation of treatment
[8] = 4 months after cessation of treatment
[9] = 5 months after cessation of treatment
[10] = 6 months after cessation of treatment

For `O=P1(N(CCCl)CCCl)NCCCO1` (centres unmarked) [CTX, cyclophosphamide], the “number of leukemia cells and standard deviation” value ([1]; T739 cells s.c., 21 consecutive days of treatment, sacrificed on 22nd day (or measured at time of death)) was 957 ± 132 cells/ml, the development of leukemia ([1]; 21 days of treatment) was “developed leukemia” and the development of leukemia ([2]; L6565, 21 days of treatment) was “developed leukemia”. The “number of leukemia cells and standard deviation” value ([2]; L6565 cells s.c., 21 consecutive days of treatment, sacrificed on 22nd day (or measured at time of death)) was 933 ± 241 cells/ml, the “Number of live animals remaining in the group” value ([3]; 0 month after cessation of treatment) was 28 and the “Number of live animals remaining in the group” value [3, 5] was 19. For the same molecule, the “Number of live animals remaining in the group” value [3, 6] was 3, the “Number of live animals remaining in the group” value [3, 7] was 0 and the “Number of live animals remaining in the group” value [3, 8] was 0. For the same molecule, the “Number of live animals remaining in the group” value [3, 9] was 0, the “Number of live animals remaining in the group” value [3, 10] was 0 and the “survival outcome during the experiment” value ([3]; observed over 6 months) was “died during the experiment”. For the same molecule, the “Number of live animals remaining in the group” value ([4]; 0 month after cessation of 21 days of treatment) was 28, the “Number of live animals remaining in the group” value [4, 5] was 19 and the “Number of live animals remaining in the group” value [4, 6] was 3. The “Number of live animals remaining in the group” value [4, 7] was 0, the “Number of live animals remaining in the group” value [4, 8] was 0 and the “Number of live animals remaining in the group” value [4, 9] was 0. For the same molecule, the “Number of live animals remaining in the group” value [4, 10] was 0 and the “survival outcome during the experiment” value ([4]; observed over 6 months) was “died during the experiment”.

Reference: US20040253252A1, “Biological compositions and methods for treatment of leukemia” (priority 2003, published 2004)
